Assay results taken from patent US8614063B2, “Methods for screening for compounds for treating cancer” (PTC Therapeutics, Inc., priority 2008, dated 2013).

Tests used:
[1] = test system: Bmi-1; assay: Bmi-1 Sandwich ELISA (endogenous Bmi-1 protein in HT-1080 cells); assay type: cell-based, human; details: 40-48 hours compound treatment
Protocol: In another embodiment, the levels of endogenous Bmi-1 are determined by the Bmi-1 Sandwich ELISA. A Sandwich ELISA measures the amount of antigen, in this case Bmi-1, between two layers of antibodies (i.e. capture and detection antibody). The capture antibody is immobilized in the wells of an ELISA plate and when a cell lysate or other sample is added to the plate, the specific protein of interest (Bmi-1) is bound by this capture antibody. A second antibody, called the detecting antibody, is then added, which binds to the bound protein and helps increase the signal. […] Either monoclonal or polyclonal antibodies can be used as the capture and detection antibodies in Sandwich ELISA systems. Monoclonal antibodies recognize a single epitope that allows fine detection and quantification of […] differences in antigen. A polyclonal is often used as the capture antibody to pull down as much of the antigen as possible.
HT-1080 cells were seeded at 5000 cells/well (50 μL) in 96-well tissue culture plates. After the cells become adherent (3-4 hours), 2× diluted stocks of compounds in 50 μL DMEM containing 1% DMSO (final DMSO concentration was 0.5%) were added and the plates were incubated at 37° C. under 5% CO2 for 40-48 hours
The plate was covered with a plate seal and allowed to stand overnight.
1× Lysis Buffer (40 μL) was added to each well and the plate was shaken for 5-10 minutes on an orbital shaker to allow cell lysis, then Diluent (1% BSA in PBS in 0.5% NP40) (100 μL) was added to each well.
Aliquots can be kept at 4° C. and reused after first thaw, but only for 1-2 weeks. The Bmi-1 Recombinant Protein Standard contains a GST and thus will show up on western blots around 70 Kda.
The prepared ELISA plate was washed 3× with Wash Buffer (0.05% Tween-20 in PBS). The final wash was removed from the plate and the plate was blotted dry on paper towels. Blocking Buffer (300 μL) (1% BSA in PBS) was added per well. The plate was covered with a plate seal and incubated at room temperature for 1 hour. The blocked plate was washed 3× with Wash Buffer, the final wash was removed and the plate was blotted dry on paper towels. The previously prepared samples and standards were added (at 100 μL/well) and the plate was covered with a plate seal and incubated at 4° C. overnight.
The prepared ELISA plate was removed from 4° C., incubated at room temperature for 30 minutes, then washed and blotted dry as previously described for Day 3. […] The plate was covered with a plate seal and incubated for 1.5 hrs at room temperature.
The ELISA plate was washed and blotted dry as previously described.
The plate was incubated for 20-30 minutes at room temperature in the dark, then Stop Solution (2 M sulfuric acid in water) ([…]) was added per well. The plates were read at OD450 (experimental) and OD570 (reference).

[2] = test system: firefly luciferase (fLuc) reporter gene flanked by the 5′-UTR and 3′-UTR of Bmi-1 mRNA; assay: Luciferase reporter gene assay in stable 293H cells; assay type: cell-based; details: Homo sapiens, fLuc flanked by Bmi-1 5′-UTR and 3′-UTR
Description: A high-level expression vector, pcDNA™3.1/Hygro (Invitrogen Corp., Carlsbad, Calif.) was used for preparing the constructs comprising the luciferase gene flanked by any of the Bmi-1 5′-UTR and 3′-UTR, or the Bmi-1 5′-UTR or the Bmi-1 3′-UTR of Bmi-1 mRNA. In a pcDNA™3.1/Hygro vector, the UTRs and restriction sites associated with cloning, expressing, or cloning and expressing a gene of interest or a reporter gene were removed or replaced. For each construct containing 5′-UTR sequences, the 5′-UTR sequences with the first 21 nucleotides of Bmi-1 ORF were cloned into the vector using the appropriate restriction sites so that the first 21 nucleotides were in frame with the luciferase reporter gene.
The cells were passaged every 4 days at 1:10 dilution. Cultures were kept in a 37° C. and 5% CO2 incubator. The cells were scaled-up over a three day period before performing the assay. Two confluent T175 flasks were split into twenty T175 flasks (1:10 dilution). Cells were harvested from each confluent flask by removing all of the media and adding 4 mL of warmed trypsin to dislodge the cells. After the cells were dislodged, 16 mL of selective media was added for a final volume of 20 mL. The cells were expanded by adding 2 mL of the harvested cells into ten new T175 flasks plus 25 mL of selective media. The twenty new flasks are placed into the 37° C., 5% CO2 incubator. On the day the assay was performed, the media was removed from the flasks and 3 mL of warmed trypsin was added to dislodge the cells. After the cells were dislodged, 10 mL of nonselective media was to the flask. This was repeated for all twenty flasks and combined into one flask. 100 μL of the above cell culture plus 100 μL of Trypan Blue stain was counted on a hemocytometer.
Luciferase activity was immediately assayed using a ViewLux Imaging system (Perkin Elmer).

[3] = CellTiter-Glo cytotoxicity assay, U937; assay type: cell-based; details: human, U937 cells (monocyte cell line); U937, relatively sensitive cell line
Description: To evaluate cytotoxicity of the compounds in the 293H cell lines, the CellTiter-Glo® assay (Promega) is utilized. CellTiter-Glo® determines the number of viable cells in culture based on quantification of the ATP present, which signals the presence of metabolically active cells. A reduction in cellular ATP is indicative of a cytotoxic or cytostatic effect. Doxorubicin, a known cytotoxic compound, is used to address the sensitivity of the tested cell line. For relatively sensitive cell lines, such as U937 (a human monocyte cell line), the CC50 of doxorubicin ranges from 4 to 10 nM.

[4] = CellTiter-Glo cytotoxicity assay, Huh7; assay type: cell-based; details: human, Huh7 cells (hepatocellular carcinoma cell line); Huh7, intermediate level of sensitivity

SMILES | EC50 [1] [nM] | EC50 [2] [nM] | CC50 [3] [nM] | CC50 [4] [nM]
COc1cc(Cl)c(Nc2nc(-c3c(C)nc4ncccn34)cs2)c(Cl)c1 [Compound 2, N-(2,6-dichloro-4-methoxyphenyl)-4-(2-methylimidazo[1,2-a]pyrimidin-3-yl)thiazol-2-amine] | 660 | 910 | – | –
COc1cc(F)c(Nc2nc(-c3c(C)nc4ncccn34)cs2)c(F)c1 [Compound 3, N-(2,6-difluoro-4-methoxyphenyl)-4-(2-methylimidazo[1,2-a]pyrimidin-3-yl)thiazol-2-amine] | > 3000 | 17600 | – | –
Cc1nc2ncccn2c1-c1csc(Nc2c(Br)cc(Br)cc2Br)n1 [Compound 5, 4-(2-methylimidazo[1,2-a]pyrimidin-3-yl)-N-(2,4,6-tribromophenyl)thiazol-2-amine] | 710 | 800 | – | –
COCCOc1cc(Br)c(Nc2nc(-c3c(C)nc4ncccn34)cs2)c(Br)c1 [Compound 6, N-(2,6-dibromo-4-(2-methoxyethoxy)phenyl)-4-(2-methylimidazo[1,2-a]pyrimidin-3-yl)thiazol-2-amine] | 1700 | 2600 | – | –
COc1cc(Cl)c(Nc2nc(-c3cnc4ccc(Cl)cn34)cs2)c(Cl)c1 [Compound 9, 4-(6-chloroimidazo[1,2-a]pyridine-3-yl)-N-(2,6-dichloro-4-methoxyphenyl)thiazol-2-amine] | 1090 | 940 | – | –
COc1cccc2c1C(=O)c1c(O)c3c(c(O)c1C2=O)C[C@@](O)(C(=O)CO)C[C@@H]3O[C@H]1C[C@H](N)[C@H](O)[C@H](C)O1 [doxorubicin, Doxorubicin] | – | – | 4 to 10 | 70 to 300

The next lines start with results.

EC50 [1] [nM] | EC50 [2] [nM] | SMILES | CC50 [3] [nM] | CC50 [4] [nM]
410 | 530 | COc1cc(Br)c(Nc2nc(-c3c(C)nc4ncccn34)cs2)c(Br)c1 [Compound 1, N-(2,6-dibromo-4-methoxyphenyl)-4-(2-methylimidazo[1,2-a]pyrimidin-3-yl)thiazol-2-amine] | – | –
320 | 540 | Cc1cc(Br)c(Nc2nc(-c3c(C)nc4ncccn34)cs2)c(Br)c1 [Compound 4, N-(2,6-dibromo-4-methylphenyl)-4-(2-methylimidazo[1,2-a]pyrimidin-3-yl)thiazol-2-amine] | – | –
360 | 750 | COc1cc(Br)c(Nc2nc(-c3cnc4ccc(Cl)cn34)cs2)c(Br)c1 [Compound 7, 4-(6-chloroimidazo[1,2-a]pyridine-3-yl)-N-(2,6-dibromo-4-methoxyphenyl)thiazol-2-amine] | – | –
390 | 3800 | Cc1cc(Br)c(Nc2nc(-c3cnc4ccc(Cl)cn34)cs2)c(Br)c1 [Compound 8, 4-(6-chloroimidazo[1,2-a]pyridine-3-yl)-N-(2,6-dibromo-4-methylphenyl)thiazol-2-amine] | – | –
